Entries after “also recorded” stand apart in the source; their conditions may differ. Like-named read-outs stand apart in the source and are kept apart here.
Assays:
[1] = Safety and tolerability, study 2; format: in vivo, human
Procedure: (§1) Safety and tolerability were assessed on the basis of adverse events (AEs), which were monitored throughout both studies. Additional safety assessments included vital signs (including supine [and standing in study 2] heart rate, systolic and diastolic blood pressure, and oral body temperature), 12‐lead electrocardiogram (ECG), clinical laboratory tests (hematology, coagulation [study 2 only], serum/plasma chemistry, urinalysis, urine drug screen, serology, and alcohol breath test), and a comprehensive physical examination. In the SAD part of study 1, clinical laboratory tests, physical examination, and vital signs were assessed at the screening visit, at the time of dosing (0 hours after dose), 24 hours after dosing and at follow‐up (7 to 10 days after the final dose). Vital signs were additionally observed 2 hours after dosing, and the 12‐lead ECG was additionally completed at 1, 2, 6, 8, and 12 hours after dosing. In the MAD part of study 1, all additional safety assessments were performed at screening; days 1, 2, 8, 14, and 15; and at follow‐up. In study 2, additional safety assessments were performed at screening (between 21 and 2 days before the first study drug administration); days 1, 2, 5, 10, 14, 15, and 20 (clinical laboratory tests were not performed on day 20); at early discontinuation; and at follow‐up. For study 2, renal function tests (measurement of estimated creatinine clearance rate using the Cockcroft‐Gault equation) were also included in the clinical laboratory tests for safety assessment.
(§2) In both studies, the safety analysis was descriptive and focused on changes from baseline and treatment‐emergent findings.

[2] = Safety across both studies and all dose groups; format: in vivo, human; conditions: both studies
Procedure: as §1, §2

CYP3A4 = CYP3A4 induction by 6β-OH-cortisol/cortisol ratio in urine; format: in vivo, human; conditions: 50 mg, 100 mg and 200/150 mg once daily; days -1 and 13
Procedure: The potential of CYP3A4 induction was assessed by means of the ratio of 6β‐OH‐cortisol to cortisol in urine.[10], [11], [12], [13], [14] Cortisol concentrations in urine were determined by using a radioimmunoassay method based on competition between labeled antigens and antigens on the specific sites of the antiserum coated on the tubes. At the end of the incubation period, the liquid in the tubes was removed by aspiration and the radioactivity (^125I‐cortisol) was measured using a gamma counter (Packard Cobra II auto‐gamma counter; Packard Instrument Co Inc, Meriden, Connecticut). […] The best curve was determined by the polynomial second‐order equation. The limit of quantification of the cortisol assay for the urine samples was set at 10 ng/mL.
6β‐OH‐cortisol concentrations in urine were determined by using a 2‐step, quantitative competitive enzyme immunoassay technique. […] The calibration equation was computed using SoftMax Pro software (Molecular Devices, Sunnyvale, California) by plotting the log of 6β‐OH‐cortisol concentrations versus the A/Ao (when A was standard or sample 6β‐OH‐cortisol absorbance and Ao was the standard 0 absorbance). The best line was determined by using the 4‐parameter logistic model. The limit of quantification of the 6β‐OH‐cortisol assay for the urine samples was set at 50 pg/mL. […]

CYP2C8 = tested on: CYP2C8; design: method as in data on file at Galapagos; conditions: in vitro; ref data on file at Galapagos; cited from earlier work
[3] = tested on: cytochrome P450 (CYP) 3A4 and CYP2C19; conditions: background statement, no reference given; cited from earlier work
[4] = design: method as in PMID 32902984; conditions: monkeys, up to 30 mg/kg/d; cited from earlier work
CYP1A2 = tested on: CYP1A2; design: method as in data on file at Galapagos; conditions: in vitro; ref data on file at Galapagos; cited from earlier work
[5] = design: method as in PMID 32902984; conditions: rats, up to 100 mg/kg/d; cited from earlier work
[6] = part 1, 50 mg QD, 18–50 years (n = 6)
[7] = part 1, 50 mg QD, 65–74 years (n = 6)
[8] = part 1, 50 mg QD, ≥ 75 years (n = 6)
[9] = part 2, 250 mg loading dose + 50 mg QD, 65–74 years (n = 8)

O=c1nc(OC[C@@H]2COCCO2)cc2n1CCc1cc(C#CC3CC3)ccc1-2 [GLPG1205, 9‐cyclopropylethynyl‐2‐((S)‐1‐[1,4]dioxan‐2‐ylmethoxy)‐6,7‐dihydropyrimido[6,1‐a]isoquinolin‐4‐one]
Any TEAE [1, 6]: 5 (83.3) number of subjects (%)
Diarrhea (TEAE) [1, 6]: 0 number of subjects (%)
Erectile dysfunction (TEAE) [1, 6]: 2 (33.3) number of subjects (%)
Gastrointestinal disorders (TEAE) [1, 6]: 2 (33.3) number of subjects (%)
Headache (TEAE) [1, 6]: 3 (50.0) number of subjects (%)
Infections and infestations (TEAE) [1, 6]: 1 (16.7) number of subjects (%)
Nasopharyngitis (TEAE) [1, 6]: 1 (16.7) number of subjects (%)
Nausea (TEAE) [1, 6]: 2 (33.3) number of subjects (%)
Nervous system disorders (TEAE) [1, 6]: 3 (50.0) number of subjects (%)
Reproductive system and breast disorders (TEAE) [1, 6]: 2 (33.3) number of subjects (%)
Vomiting (TEAE) [1, 6]: 0 number of subjects (%)
Any TEAE [1, 7]: 5 (83.3) number of subjects (%)
Diarrhea (TEAE) [1, 7]: 0 number of subjects (%)
Erectile dysfunction (TEAE) [1, 7]: 0 number of subjects (%)
Gastrointestinal disorders (TEAE) [1, 7]: 1 (16.7) number of subjects (%)
Headache (TEAE) [1, 7]: 3 (50.0) number of subjects (%)
Infections and infestations (TEAE) [1, 7]: 3 (50.0) number of subjects (%)
Nasopharyngitis (TEAE) [1, 7]: 2 (33.3) number of subjects (%)
Nausea (TEAE) [1, 7]: 0 number of subjects (%)
Nervous system disorders (TEAE) [1, 7]: 4 (66.7) number of subjects (%)
Reproductive system and breast disorders (TEAE) [1, 7]: 0 number of subjects (%)
Vomiting (TEAE) [1, 7]: 0 number of subjects (%)
Any TEAE [1, 8]: 3 (50.0) number of subjects (%)
Diarrhea (TEAE) [1, 8]: 0 number of subjects (%)
Erectile dysfunction (TEAE) [1, 8]: 0 number of subjects (%)
Gastrointestinal disorders (TEAE) [1, 8]: 1 (16.7) number of subjects (%)
Headache (TEAE) [1, 8]: 0 number of subjects (%)
Infections and infestations (TEAE) [1, 8]: 0 number of subjects (%)
Nasopharyngitis (TEAE) [1, 8]: 0 number of subjects (%)
Nausea (TEAE) [1, 8]: 0 number of subjects (%)
Nervous system disorders (TEAE) [1, 8]: 0 number of subjects (%)
Polyuria (TEAE) [1, 8]: 2 (33.3) 2 (33.3) number of subjects (%)
Renal and urinary disorders (TEAE) [1, 8]: 2 (33.3) 2 (33.3) number of subjects (%)
Reproductive system and breast disorders (TEAE) [1, 8]: 0 number of subjects (%)
Vomiting (TEAE) [1, 8]: 0 number of subjects (%)
Any TEAE [1, 9]: 7 (87.5) number of subjects (%)
Diarrhea (TEAE) [1, 9]: 1 (12.5) number of subjects (%)
Erectile dysfunction (TEAE) [1, 9]: 0 number of subjects (%)
Gastrointestinal disorders (TEAE) [1, 9]: 4 (50.0) number of subjects (%)
Headache (TEAE) [1, 9]: 1 (12.5) number of subjects (%)
Infections and infestations (TEAE) [1, 9]: 0 number of subjects (%)
Nasopharyngitis (TEAE) [1, 9]: 0 number of subjects (%)
Nausea (TEAE) [1, 9]: 3 (37.5) number of subjects (%)
Nervous system disorders (TEAE) [1, 9]: 1 (12.5) number of subjects (%)
Polyuria (TEAE) [1, 9]: 0 number of subjects (%)
Renal and urinary disorders (TEAE) [1, 9]: 0 number of subjects (%)
Reproductive system and breast disorders (TEAE) [1, 9]: 0 number of subjects (%)
Vomiting (TEAE) [1, 9]: 2 (25.0) number of subjects (%)
nausea of mild intensity ([1]; part 2, loading dose): 2 n
nausea of moderate intensity ([1]; part 2, loading dose): 1 n
ECG and vital signs [2]: no clinically significant trends
deaths or serious AEs [2]: No deaths or serious AEs occurred
subjects with headache (TEAE) ([2]; all GLPG1205 dose groups): 17 subjects
subjects with nausea (TEAE) ([2]; all GLPG1205 dose groups): 12 subjects
subjects with treatment-emergent AEs ([2]; all GLPG1205 dose groups): 44 subjects
6β‐OH‐cortisol/cortisol ratio in urine (CYP3A4): No significant day and dose effects; also recorded: did not impact
inhibition of CYP2C8 (CYP2C8): weak inhibition
main enzymes involved in GLPG1205 metabolism [3]: cytochrome P450 (CYP) 3A4 and CYP2C19
dose-proportionality of exposure [4]: increased dose‐proportionally
induction of CYP1A2 (CYP1A2): weak induction
dose-proportionality of exposure [5]: increased dose‐proportionally

Source: paper PMC8453901, “GLPG1205, a GPR84 Modulator: Safety, Pharmacokinetics, and Pharmacodynamics in Healthy Subjects” (Clinical Pharmacology in Drug Development, 2021)
